Drawing on PubChem BioAssay AID330 (DTP/NCI, 2004), this text covers T/C for 26 molecules.

In this experiment the test system is P388 leukemia ip, CD2F1 mice, survival T/C. Kind of experiment: NCI In Vivo Anticancer Drug Screen. Data for tumor model P388 Leukemia (intraperitoneal) in CD2F1 (CDF1) mice. The settings on record: endpoint: median survival time, higher = longer survival. The essentials: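 Mice carrying the transplanted tumor received test compound or vehicle. Survival was recorded in each group, and the value is the treated-group measurement divided by that of the vehicle-treated control group.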

[1] abbreviates: dose: 60.0 mg/kg/injection, schedule: Q01DX005 (ip), vehicle: Klucel (hydroxypropylcellulose) (HPC).
[2] abbreviates: dose: 120.0 mg/kg/injection, schedule: Q01DX005 (ip), vehicle: Klucel (hydroxypropylcellulose) (HPC).
Where [3] appears, read: dose: 240.0 mg/kg/injection, schedule: Q01DX005 (ip), vehicle: Klucel (hydroxypropylcellulose) (HPC).
[4] abbreviates: dose: 12.5 mg/kg/injection, schedule: Q01DX009 (ip), vehicle: water.
The mark [5] stands for this setting: dose: 25.0 mg/kg/injection, schedule: Q01DX009 (ip), vehicle: water.
Setting [6] is: dose: 50.0 mg/kg/injection, schedule: Q01DX009 (ip), vehicle: water.
The mark [7] stands for this setting: dose: 100.0 mg/kg/injection, schedule: Q01DX009 (ip), vehicle: water.
Setting [8] is: dose: 100.0 mg/kg/injection, schedule: Q04DX003 (ip), vehicle: saline with Tween-80.
Where [9] appears, read: dose: 200.0 mg/kg/injection, schedule: Q04DX003 (ip), vehicle: saline with Tween-80.
The mark [10] stands for this setting: dose: 400.0 mg/kg/injection, schedule: Q04DX003 (ip), vehicle: saline with Tween-80.
Setting [11] is: dose: 25.0 mg/kg/injection, schedule: Q01DX009 (ip), vehicle: saline with Tween-80.
The mark [12] stands for this setting: dose: 50.0 mg/kg/injection, schedule: Q01DX009 (ip), vehicle: saline with Tween-80.
[13] abbreviates: dose: 100.0 mg/kg/injection, schedule: Q01DX009 (ip), vehicle: saline with Tween-80.
Setting [14] is: dose: 200.0 mg/kg/injection, schedule: Q01DX009 (ip), vehicle: saline with Tween-80.
The mark [15] stands for this setting: dose: 50.0 mg/kg/injection, schedule: Q01DX005 (ip), vehicle: Klucel (hydroxypropylcellulose) (HPC).
The mark [16] stands for this setting: dose: 100.0 mg/kg/injection, schedule: Q01DX005 (ip), vehicle: Klucel (hydroxypropylcellulose) (HPC).
The mark [17] stands for this setting: dose: 200.0 mg/kg/injection, schedule: Q01DX005 (ip), vehicle: Klucel (hydroxypropylcellulose) (HPC).
Setting [18] is: dose: 12.5 mg/kg/injection, schedule: Q01DX005 (ip), vehicle: Klucel (hydroxypropylcellulose) (HPC).
Where [19] appears, read: dose: 25.0 mg/kg/injection, schedule: Q01DX005 (ip), vehicle: Klucel (hydroxypropylcellulose) (HPC).
The mark [20] stands for this setting: dose: 12.5 mg/kg/injection, schedule: Q01DX009 (ip), vehicle: saline with Tween-80.
The mark [21] stands for this setting: dose: 200.0 mg/kg/injection, schedule: Q01DX009 (ip), vehicle: water.
Where [22] appears, read: dose: 60.0 mg/kg/injection, schedule: Q01DX005 (ip), vehicle: saline with Tween-80.
Where [23] appears, read: dose: 120.0 mg/kg/injection, schedule: Q01DX005 (ip), vehicle: saline with Tween-80.
Where [24] appears, read: dose: 240.0 mg/kg/injection, schedule: Q01DX005 (ip), vehicle: saline with Tween-80.

Molecules are shown by their SMILES. Several values for one entry are separate records, joined by “and”; a condition that tells them apart may be missing. Equal values may be shown once. Toxic doses and inconclusive results are not listed.

Regarding `CCC(=O)N(C)[C@@H]1Oc2ccc(O)cc2[C@]1(C)c1cc(O)ccc1O`, the T/C reads like this: under setting [1], 98 % of control; under setting [2], 97 % of control; under setting [3], 99 % of control.

`Cc1cc(N2C(=O)CCSC2=S)ccc1F`: the T/C (dose: 12.5 mg/kg/injection, schedule: Q01DX009 (ip), vehicle: saline) was 101 % of control; the T/C (dose: 25.0 mg/kg/injection, schedule: Q01DX009 (ip), vehicle: saline) is 108 % of control; the T/C (dose: 50.0 mg/kg/injection, schedule: Q01DX009 (ip), vehicle: saline) is 108 % of control; the T/C (dose: 50.0 mg/kg/injection, schedule: Q01DX009 (ip), vehicle: suspension in saline) was 91 % of control; the T/C (dose: 100.0 mg/kg/injection, schedule: Q01DX009 (ip), vehicle: suspension in saline) was 94 % of control; the T/C (dose: 200.0 mg/kg/injection, schedule: Q01DX009 (ip), vehicle: suspension in saline) is 88 % of control.

On to `COc1ccc(CN2CCCNCC2)cc1`, for which the T/C is, setting by setting: under setting [4], 93 % of control; under setting [5], 100 % of control; under setting [6], 102 % of control; under setting [7], 93 % of control.

On to `COc1cccc(/C=N\NC(=O)C(C)SC(C)C(=O)N/N=C/c2cccc(OC)c2)c1` (centres undefined), for which the T/C under setting [8] was 104 % of control, the T/C under setting [9] is 90 % of control and the T/C under setting [10] was 100 % of control.

On to `COc1ccc(OC)c(NC(=O)Oc2cccc(NC(C)=O)c2)c1`, for which the T/C is 105 % of control under setting [11]; 106 % of control under setting [12]; 104 % of control under setting [13]; 107 % of control under setting [14]; 104 % of control (dose: 400.0 mg/kg/injection, schedule: Q01DX009 (ip), vehicle: saline with Tween-80).

As for `CC(SCCCCCCCCCCSC(C)C(=O)O)C(=O)O` (centres undefined), the T/C is 93 % of control under setting [15], 98 % of control under setting [16] and 95 % of control under setting [17].

As to `CCN(CC)CCOc1cccc2c1C(=O)c1c(O)cccc1C2=O`, the T/C reads like this: under setting [11], 103 % of control and 95 % of control; under setting [12], 105 % of control and 97 % of control; under setting [13], 158 % of control.

Consider `CCOC1(OCC)Oc2c(Cl)c(Cl)c(Cl)c(Cl)c2OC1(OCC)OCC`, for which the T/C by setting is: under setting [1], 99 % of control; under setting [2], 100 % of control; under setting [3], 104 % of control.

For the molecule `CCCCc1ccc2nc(C)cc(N/N=C/c3ccc(OC)c4ccccc34)c2c1`, the T/C is 100 % of control under setting [18], 98 % of control under setting [19], 87 % of control under setting [15] and 100 % of control under setting [17].

For `C=CCOc1ccccc1N/N=C(\Cl)C(=O)OCC`, the T/C was 124 % of control under setting [20], 120 % of control under setting [11] and 121 % of control under setting [12].

`CC1=C(C(=O)Nc2ccc(Cl)c(C(=O)OC(C)C)c2)SCCO1`: the T/C by setting is: (dose: 100.0 mg/kg/injection, schedule: Q01DX001 (ip), vehicle: saline with Tween-80) 96 % of control; (dose: 200.0 mg/kg/injection, schedule: Q01DX001 (ip), vehicle: saline with Tween-80) 92 % of control; (dose: 400.0 mg/kg/injection, schedule: Q01DX001 (ip), vehicle: saline with Tween-80) 87 % of control.

On to `COc1ccc(C2c3cc4c(cc3OC(O)C2C)OCO4)cc1` (centres undefined), for which the T/C was 106 % of control under setting [1], 100 % of control under setting [2] and 101 % of control under setting [3].

Regarding `NOCc1cccc(CON)c1`, the T/C under setting [12] was 91 % of control.

Regarding `CCCCCNC(=O)CCC(NC(=O)c1ccc(N(C)Cc2cnc3nc(N)nc(N)c3n2)cc1)C(=O)O` (centres undefined), the T/C is, setting by setting: (dose: 200.0 mg/kg/injection, schedule: Q01DX009 (ip), vehicle: sodium bicarbonate) 155 % of control; (dose: 400.0 mg/kg/injection, schedule: Q01DX009 (ip), vehicle: sodium bicarbonate) 91 % of control.

Take `CCCCN1C(=O)CC(SC2CC(=O)N(CCCC)C2=O)C1=O` (centres undefined): the T/C runs as follows: under setting [15], 97 % of control; under setting [16], 86 % of control; under setting [17], 103 % of control.

Turning to `COc1cc2ccc(/C=N/NC(N)=S)cc2cc1OC`, the T/C runs as follows: under setting [4], 96 % of control; under setting [5], 90 % of control; under setting [6], 96 % of control; under setting [7], 91 % of control; under setting [21], 89 % of control.

Regarding `CC1=N[C@@H](C(=O)NCC(N)=O)Cc2c1[nH]c1ccccc21`, the T/C is 98 % of control under setting [22], 93 % of control under setting [23] and 93 % of control under setting [24].

Regarding `O=P1(O)OC[C@H]2CCC[C@@H]2O1`, the T/C is 106 % of control (dose: 60.0 mg/kg/injection, schedule: Q01DX005 (ip), vehicle: saline) and 97 % of control (dose: 120.0 mg/kg/injection, schedule: Q01DX005 (ip), vehicle: saline).

Regarding `Nc1nsc2nc3ccccc3cc12`, the T/C by setting is: (dose: 6.25 mg/kg/injection, schedule: Q01DX005 (ip), vehicle: Klucel (hydroxypropylcellulose) (HPC)) 102 % of control; under setting [18], 100 % of control; under setting [19], 99 % of control; under setting [16], 112 % of control; under setting [17], 102 % of control.

For the molecule `CS(C)=C1C(=O)C(=O)C(=S(C)C)C(=O)C1=O`, the T/C runs as follows: under setting [22], 107 % of control; under setting [23], 104 % of control; under setting [24], 100 % of control.

With `O=C(O)c1ccccc1C(=O)O`, the T/C runs as follows: under setting [4], 102 % of control; under setting [5], 102 % of control; under setting [6], 98 % of control; under setting [7], 92 % of control; under setting [21], 88 % of control.

Consider `CC1(C)CC(C)(OC(=O)c2ccc(Cl)cc2)N=N1` (centres undefined), for which the T/C is 104 % of control under setting [20]; 103 % of control under setting [11]; 99 % of control under setting [12]; 99 % of control under setting [13]; 98 % of control under setting [14].

Take `COc1cc2c(c(O)c1O)-c1ccc(OC)c(=O)cc1C(NC(C)=O)CC2` (centres undefined): the T/C is, setting by setting: (dose: 1.25 mg/kg/injection, schedule: Q01DX009 (ip), vehicle: water) 97 % of control; (dose: 2.5 mg/kg/injection, schedule: Q01DX009 (ip), vehicle: water) 97 % of control; (dose: 5.0 mg/kg/injection, schedule: Q01DX009 (ip), vehicle: water) 100 % of control; (dose: 10.0 mg/kg/injection, schedule: Q01DX009 (ip), vehicle: water) 100 % of control; (dose: 20.0 mg/kg/injection, schedule: Q01DX009 (ip), vehicle: water) 97 % of control; (dose: 40.0 mg/kg/injection, schedule: Q01DX009 (ip), vehicle: distilled water + Tween-80) 108 % of control. Also, under “dose: 80.0 mg/kg/injection, schedule: Q01DX009 (ip), vehicle: distilled water + Tween-80”, the T/C is 122 % of control.

With `NC(Cc1ccc(O)cc1)C(=O)OC1CCCCC1` (centres undefined), the T/C is 107 % of control (dose: 25.0 mg/kg/injection, schedule: Q04DX003 (ip), vehicle: saline with Tween-80); 110 % of control (dose: 50.0 mg/kg/injection, schedule: Q04DX003 (ip), vehicle: saline with Tween-80); 100 % of control under setting [8]; 96 % of control under setting [9]; 95 % of control under setting [10].

`O/N=C\C[n+]1cc2ccccc2cc1/C=N\O`: the T/C by setting is: (dose: 50.0 mg/kg/injection, schedule: Q01DX005 (ip), vehicle: saline with Tween-80) 112 % of control; (dose: 100.0 mg/kg/injection, schedule: Q01DX005 (ip), vehicle: saline with Tween-80) 109 % of control.

On to `CCCCCCCCn1c(C)nc2c(cnn2C)c1=O`, for which the T/C is 100 % of control under setting [15], 96 % of control under setting [16] and 100 % of control under setting [17].
